Assays:
Format in all cases: cell-based, human
[1] = test system: HOXA9 in 1833 cells; assay: qRT-PCR / immunoblotting for HOXA9 after demethylation treatment of 1833 cells; conditions: 1833 cells treated with demethylation reagent; qRT-PCR / immunoblotting (FIG. 20G, 27A, 27C)
Method: (§1) Total RNA was isolated from cells by using miRNeasy Mini Kit (Qiagen) following the manufacturer's instructions. Quantitative RT-PCR (qRT-PCR) was performed as described (4). The qPCR primers for human or murine HMGA2, TET1, HOXA genes and GAPDH were Taqman and were purchased from Applied Biosystems.
Cells were lysed in complete lysis buffer (pH 7.5) by using Nuclear Extract Kit (Active Motif) following the manufacturer's protocols. Proteins were measured, separated, and probed as described (4). Antibodies specific for each protein were HMGA2 (61042; Active Motif), TET1 (sc-163446; Santa Cruz Biotechnologies), HOXA7 (09-086; Millipore), HOXA9 (09-178; Millipore), GAPDH (ab9484; Abcam), and Flag-M1 (F3040; Sigma).
(§2) Cells were subjected to 5-azacytidine (1 or 3.6 μM), decitabine (5-aza-dC; 220 or 440 nM), or mock treatment by addition into cell culture at indicated concentration. Cells were treated daily. RNA and protein were isolated respectively.

[2] = test system: 1833 cells; assay: In vitro cell invasion assay (Matrigel); conditions: 1833 cells treated with demethylation reagent (FIG. 21D, 27B)
Method: as §2
Cell proliferation assays were performed by using the CellTiter-Blues assay (Promega) as described (4). Invasion assays were performed as described (4) with modifications. Briefly, the inserts were coated with Matrigel basement membrane matrix (BD Biosciences). To assess the cell invasion ability, […] cells were seeded on top of the polymerized Matrigel in serum-free medium, and complete medium (10% FBS) was placed in the lower compartment. After 24 h, cells on the lower part of the insert were stained with BD Calcein AM Fluorescent Dye. The inserts with the invaded cells were incubated in dissociation buffer (Travigen) with gentle shaking. Fluorescence measurements were used to record data with 485 nm for excitation and 530 nm for emission.

[3] = test system: TET1 mRNA in 1833 cells; assay: qRT-PCR for TET1 mRNA after demethylation treatment of 1833 cells; conditions: 1833 cells treated with 5-azacytidine, GAPDH normalization (FIG. 18D)
Method: as §1, with “Biosystems. Cells were subjected to 5-azacytidine (1 or 3.6 μM), decitabine (5-aza-dC; 220 or 440 nM), or mock treatment by addition into cell culture at indicated concentration. Cells were treated daily. RNA and protein were isolated respectively.” for “Biosystems.”

[4] = test system: HOXA7 mRNA in 1833 cells; assay: qRT-PCR for HOXA7 mRNA after demethylation treatment of 1833 cells; conditions: 1833 cells treated with 5-azacytidine, GAPDH normalization (FIG. 20F)
Method: as §1, with “Biosystems. Cells were subjected to 5-azacytidine (1 or 3.6 μM), decitabine (5-aza-dC; 220 or 440 nM), or mock treatment by addition into cell culture at indicated concentration. Cells were treated daily. RNA and protein were isolated respectively.” for “Biosystems.”

## Nc1ncn([C@@H]2O[C@H](CO)[C@@H](O)[C@H]2O)c(=O)n1 [5-azacytidine]
[1]
  HOXA9 expression: dramatic increase
[2]
  cell invasion: decreased cell invasion
[3]
  TET1 expression: increase in TET1 expression
[4]
  HOXA7 expression: dramatic increase
